Experimental data: ChEMBL document CHEMBL1201862, “PubChem BioAssay data set” (2004)
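Where inhibition never reached the appropriate level, the endpoint shown equals the highest concentration tested. Otherwise, values were interpolated linearly from a five-concentration, 48-hour dose response in 96-well plates. At the GI50, growth is halved.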 Active and inactive are the calls of the source. Cut-off read from the data, not from the text of the source: active = GI50 up to about 1.1 µM and inactive = higher.

What was measured:
Assay in all cases: DTP human tumour cell line panel, 48 h
Malme-3M = tested on: Malme-3M
OVCAR-4 = tested on: OVCAR-4
SF-268 = tested on: SF-268
DLD-1 = tested on: DLD-1
DMS-114 = tested on: DMS-114
LXFL 529 = tested on: LXFL 529
OVCAR-8 = tested on: OVCAR-8
NCI-H522 = tested on: NCI-H522
NCI-H460 = tested on: NCI-H460
HCT-15 = tested on: HCT-15
CCRF-CEM = tested on: CCRF-CEM
SR = tested on: SR
SW-620 = tested on: SW-620
OVCAR-5 = tested on: OVCAR-5
SNB-19 = tested on: SNB-19
COLO 205 = tested on: COLO 205
KM-20L2 = tested on: KM-20L2
EKVX = tested on: EKVX

Row | SMILES | GI50 (Malme-3M) | GI50 (OVCAR-4) | GI50 (SF-268) | GI50 (DLD-1) | GI50 (DMS-114) | GI50 (LXFL 529) | GI50 (OVCAR-8) | GI50 (NCI-H522) | GI50 (NCI-H460) | GI50 (HCT-15) | GI50 (CCRF-CEM) | GI50 (SR) | GI50 (SW-620) | GI50 (OVCAR-5) | GI50 (SNB-19) | GI50 (COLO 205) | GI50 (KM-20L2) | GI50 (EKVX)
1 | Clc1ccc(OCc2nnc3n2N=C(c2ccccc2)CS3)c(Cl)c1 | > 100 µM (inactive) | 50.9 µM (inactive) | 8.73 µM (inactive) | 7.26 µM (inactive) | > 100 µM (inactive) | 5.6 µM (inactive) | 7.33 µM (inactive) | 3.81 µM (inactive) | 5 µM (inactive) | > 100 µM | 4.03 µM (inactive) | 4.73 µM (inactive) | > 100 µM (inactive) | 5.78 µM (inactive) | 3.78 µM (inactive) |  |  | 
2 | COC(=O)C(Br)C1CCc2ccccc21 (stereo not given) | > 100 µM (inactive) | 53.2 µM (inactive) | > 100 µM (inactive) | > 100 µM (inactive) | > 100 µM (inactive) | > 100 µM (inactive) | > 100 µM (inactive) |  | > 100 µM (inactive) | > 100 µM | 48.1 µM (inactive) | 42.8 µM (inactive) | > 100 µM (inactive) | > 100 µM (inactive) | 82.2 µM (inactive) | > 100 µM (inactive) | > 100 µM (inactive) | 
3 | CC(=O)c1ccccc1NC(=O)C(=O)C(C(=O)c1ccccc1-c1ccccc1)C1OC(=O)c2ccccc21 (stereo not given) | 15.5 µM (inactive) | 33.7 µM (inactive) |  | 23.1 µM (inactive) |  | 15.5 µM (inactive) | 19.1 µM (inactive) | 14.7 µM (inactive) | 19.1 µM (inactive) | 19.7 µM | 25.1 µM (inactive) | 21.6 µM (inactive) | 34.3 µM (inactive) | 29.2 µM (inactive) | 22.1 µM (inactive) | 23.2 µM (inactive) | 26.6 µM (inactive) | 29.7 µM (inactive)
4 | N#CCC(=O)Nc1cccc(C(F)(F)F)c1 | > 100 µM (inactive) | > 100 µM (inactive) | > 100 µM (inactive) | > 100 µM (inactive) |  | > 100 µM (inactive) | > 100 µM (inactive) | > 100 µM (inactive) | > 100 µM (inactive) | > 100 µM | > 100 µM (inactive) | > 100 µM (inactive) | > 100 µM (inactive) | > 100 µM (inactive) | > 100 µM (inactive) | > 100 µM (inactive) | > 100 µM (inactive) | > 100 µM (inactive)
5 | CC(=O)C1=NN(c2ccccc2)C2(S1)SC(c1ccccc1)(c1ccccc1)c1ccccc12 (stereo not given) | 37.4 µM (inactive) | 24.2 µM (inactive) | 40.1 µM (inactive) | 61.4 µM (inactive) | 32.5 µM (inactive) | 15.2 µM (inactive) | 34.9 µM (inactive) | 22.9 µM (inactive) | 32.3 µM (inactive) | > 100 µM | 49.3 µM (inactive) | 20.4 µM (inactive) | 99.1 µM (inactive) |  | 62.2 µM (inactive) | > 100 µM (inactive) | > 100 µM (inactive) | > 100 µM (inactive)
6 | COC(=O)CC(NC(=O)OCc1ccccc1)C(C(=O)OCc1ccccc1)C(C)(OC)OC (stereo not given) | 28 µM (inactive) | 28.6 µM (inactive) | 39.9 µM (inactive) | 20.9 µM (inactive) | 22.8 µM (inactive) | 5.69 µM (inactive) | 19.5 µM (inactive) |  | 31.7 µM (inactive) | 32.1 µM | 13 µM (inactive) | 8.81 µM (inactive) | 32.9 µM (inactive) |  | 38.2 µM (inactive) | 16.9 µM (inactive) | 45.4 µM (inactive) | 29.7 µM (inactive)
7 | C#C[C@@H](CCCC)OC(=O)N[C@H](C)c1ccccc1 |  | 39.2 µM (inactive) | 2.17 µM (inactive) | 59.4 µM (inactive) | 25.1 µM (inactive) | 43.1 µM (inactive) | 13.7 µM (inactive) | 1.74 µM (inactive) | 56.6 µM (inactive) |  | 25.7 µM (inactive) | 21.3 µM (inactive) | 51.9 µM (inactive) | 33 µM (inactive) | 93.3 µM (inactive) | 2.45 µM (inactive) | 51.8 µM (inactive) | 60.7 µM (inactive)
8 | CCCCCCCCCCCCCC(=O)NCO | > 100 µM (inactive) | > 100 µM (inactive) | > 100 µM (inactive) | > 100 µM (inactive) | > 100 µM (inactive) | > 100 µM (inactive) | > 100 µM (inactive) | 86.3 µM (inactive) | > 100 µM (inactive) | > 100 µM | > 100 µM (inactive) |  | > 100 µM (inactive) | > 100 µM (inactive) | > 100 µM (inactive) | > 100 µM (inactive) | > 100 µM (inactive) | > 100 µM (inactive)
9 | CC/C=C\C/C=C\C1CC(=O)NCCCNCCCCN1 (stereo not given) | 15.6 µM (inactive) | > 100 µM (inactive) | > 100 µM (inactive) | > 100 µM (inactive) | > 100 µM (inactive) | > 100 µM (inactive) | > 100 µM (inactive) | 55.3 µM (inactive) | > 100 µM (inactive) |  |  | > 100 µM (inactive) | > 100 µM (inactive) | > 100 µM (inactive) | > 100 µM (inactive) | > 100 µM (inactive) | > 100 µM (inactive) | > 100 µM (inactive)
10 | Cc1nnc2c3nnc(C)n3c3ccccc3n12 | > 100 µM (inactive) | > 100 µM (inactive) | > 100 µM (inactive) | > 100 µM (inactive) | > 100 µM (inactive) | > 100 µM (inactive) | > 100 µM (inactive) | > 100 µM (inactive) | > 100 µM (inactive) | > 100 µM | > 100 µM (inactive) |  | > 100 µM (inactive) | > 100 µM (inactive) | > 100 µM (inactive) | > 100 µM (inactive) | > 100 µM (inactive) | > 100 µM (inactive)
11 | COc1ccc(N2C(=O)C3c4[nH]c5ccccc5c4C4CC(C)(C)CC(C)(C)C4C3C2=O)cc1 (stereo not given) | 16.4 µM (inactive) | 10.2 µM (inactive) | 16.4 µM (inactive) | 27 µM (inactive) | 27.2 µM (inactive) | 13.3 µM (inactive) | 3.2 µM (inactive) | 17.2 µM (inactive) |  | 30.2 µM | 69.7 µM (inactive) | 10.3 µM (inactive) | 20 µM (inactive) |  | 23.7 µM (inactive) | 8.81 µM (inactive) | 29.3 µM (inactive) | 15.9 µM (inactive)
12 | CCCCCCCCCCCCCC(=O)OCC(C[As](=O)(O)O)OC(=O)CCCCCCCCCCCCC (stereo not given) | > 100 µM (inactive) | > 100 µM (inactive) | > 100 µM (inactive) | > 100 µM (inactive) | 74 µM (inactive) | > 100 µM (inactive) | > 100 µM (inactive) | > 100 µM (inactive) | > 100 µM (inactive) | 69.3 µM | > 100 µM (inactive) | > 100 µM (inactive) | 18.6 µM (inactive) |  | > 100 µM (inactive) |  | > 100 µM (inactive) | > 100 µM (inactive)
13 | Brc1ccc(C[P+]2(c3ccccc3)CCCCC2)cc1.[O-][Cl+3]([O-])([O-])[O-] | 58.5 µM (inactive) |  |  | > 100 µM (inactive) | 39.5 µM (inactive) | 25.1 µM (inactive) | 95.1 µM (inactive) | 19 µM (inactive) | > 100 µM (inactive) | > 100 µM | 82 µM (inactive) | 38.1 µM (inactive) | 79.1 µM (inactive) | > 100 µM (inactive) | 61.4 µM (inactive) | 20.5 µM (inactive) | 61.2 µM (inactive) | > 100 µM (inactive)
14 | CC(=O)NNc1nc(C)c(C(=O)/C=C/c2ccc(/C=C/C(=O)c3sc(NNC(C)=O)nc3C)cc2)s1 | > 100 µM (inactive) | > 100 µM (inactive) | > 100 µM (inactive) | > 100 µM (inactive) | > 100 µM (inactive) | > 100 µM (inactive) | > 100 µM (inactive) | > 100 µM (inactive) | > 100 µM (inactive) | > 100 µM | > 100 µM (inactive) | > 100 µM (inactive) | > 100 µM (inactive) | > 100 µM (inactive) | > 100 µM (inactive) | > 100 µM (inactive) |  | 57.3 µM (inactive)
15 | CC(=O)Nc1ccc(S(=O)(=O)N/N=C(\C)CN2C(=O)c3ccccc3C2=O)cc1 | > 100 µM (inactive) | > 100 µM (inactive) |  | > 100 µM (inactive) |  | > 100 µM (inactive) | > 100 µM (inactive) | > 100 µM (inactive) | > 100 µM (inactive) | > 100 µM | > 100 µM (inactive) | > 100 µM (inactive) | > 100 µM (inactive) | > 100 µM (inactive) | > 100 µM (inactive) | > 100 µM (inactive) | > 100 µM (inactive) | > 100 µM (inactive)
16 | O=C1/C(=C/c2ccc(Cl)cc2)COc2ccc(Br)cc21 | > 100 µM (inactive) |  | > 100 µM (inactive) | > 100 µM (inactive) | > 100 µM (inactive) | > 100 µM (inactive) | > 100 µM (inactive) | 69.7 µM (inactive) | > 100 µM (inactive) |  | 61.1 µM (inactive) |  | > 100 µM (inactive) | > 100 µM (inactive) |  | > 100 µM (inactive) | > 100 µM (inactive) | > 100 µM (inactive)
17 | Cc1ccc(NC(=O)CC/C(CC(=O)c2ccc(F)cc2)=N\NC(=O)C(=O)NN)cc1C | > 100 µM (inactive) | > 100 µM (inactive) | > 100 µM (inactive) | > 100 µM (inactive) | > 100 µM (inactive) | > 100 µM (inactive) | > 100 µM (inactive) | > 100 µM (inactive) | > 100 µM (inactive) | > 100 µM | > 100 µM (inactive) |  | > 100 µM (inactive) | > 100 µM (inactive) | > 100 µM (inactive) | > 100 µM (inactive) | > 100 µM (inactive) | > 100 µM (inactive)
